Patent US9850251B2, “Imidazole derivative used as antiviral agent and use therof in preparation of medicament” (priority 2013, dated 2017)

Legend:
[1] = tested on: RSV respiratory tract virus (A long strain); test: RSV long CPE assay (cytopathic effect assay), EC50; assay type: cell-based; settings: human respiratory syncytial virus, HEp-2, 120 h; Hep2 cells infected with RSV A long strain, 5 days, CCK-8 readout
Method: (§1) Detect EC50 and CC50 values of anti RSV respiratory tract virus compounds through the cytopathic effect assay.
Virus strain: RSV respiratory tract virus (A long strain)
(§2) The cell plate was centrifugated (300 rpm) to make the cells adherent to the wall, placed into a 37° C., 5% CO2 incubator overnight.
(§3) 1) the compound in 100% DMSO underwent a semi logarithmic dilution, then was added to the cell plate with a Echo liquid handler. Ensure that the final concentration of DMSO was 1%;
(§4) 2) Cell-control hole: no compound and viruse were added; virus-control hole: no compound was added.
dilute RSV viruses to 100 TCID50/30 μL with medium cultured with 4° C. cells, and then add the diluted viruses to a cell plate (30 μL/hole) with Multidrop® automatic liquid distributor, and then placed into a 37° C., 5% CO2 culture incubator for 5 days.
1) after 5 days, observe the pathological change in each hole.
(§5) 2) add CCK-8 (Dojindo-CK04-20, 6 μL/hole) to 384 well plate with Multidrop® automatic liquid distributor;
(§6) 3) place the plate at a 37° C., 5% CO2 culture incubator for 3˜4 h, read the absorbance value with SPECTRA max 340PC_Molecular device at 450 nm and 630 nm;

[2] = RSV long CPE assay (cytopathic effect assay), CC50 toxicity in vitro; assay type: cell-based; settings: human, Hep2 cells, CCK-8 readout, top concentration 100 μM
Method: as §1, §2, §3, §4, §5, §6

Compound | EC50 [1] [nM] | CC50 at 5 days [2] [nM]
CCOC(=O)N1CC2(C1)C(=O)N(Cc1nc3c(n1CCCC(F)(F)F)CCCC3C)c1ccccc12 (stereo not shown) [Embodiment 110, Ethyl 1′-((4-methyl-1-(4,4,4-trifluorobutyl)-4,5,6,7-tetrahydro-1H-benzo[d]imidazol-2-yl)methyl)-2′-oxospiro[azetidine-3,3′-indoline]-1-carboxylate] | 100 to 1000 | > 100000
CC(C)=C(F)Cn1c(CN2C(=O)C3(CN(C(=O)OC(C)C)C3)c3ccccc32)nc2c1CCCC2 [Embodiment 71, Isopropyl 1′-((1-(2-fluoro-3-methylbut-2-en-1-yl)-4,5,6,7-tetrahydro-1H-benzo[d]imidazol-2-yl)methyl)-2′-oxospiro[azetidine-3,3′-indoline]-1-carboxylate] | 100 to 1000 | > 100000
CC(C)OC(=O)N1CC2(C1)C(=O)N(Cc1nc3c(n1CC(=O)C(C)C)CCCC3)c1ccccc12 [Embodiment 68, Isopropyl 1′-((1-(3-methyl-2-oxobutyl)-4,5,6,7-tetrahydro-1H-benzo[d]imidazol-2-yl)methyl)-2′-oxospiro[azetidine-3,3′-indoline]-1-carboxylate] | 100 to 1000 | > 100000
CC(C)OC(=O)N1CC2(C1)C(=O)N(Cc1nc3c(n1CCCC(F)(F)F)C(O)CCC3)c1ccccc12 (stereo not shown) [Embodiment 109, Isopropyl 1′-((7-hydroxy-1-(4,4,4-trifluorobutyl)-4,5,6,7-tetrahydro-1H-benzo[d]imidazol-2-yl)methyl)-2′-oxospiro[azetidine-3,3′-indoline]-1-carboxylate] | 100 to 1000 | > 100000
CC(C)OC(=O)N1CC2(C1)C(=O)N(Cc1nc3c(n1CCCCO)CCC3)c1ccccc12 [Embodiment 103, Isopropyl 1′-((1-(4-hydroxybutyl)-1,4,5,6-tetrahydrocyclopenta[d]imidazol-2-yl)methyl)-2′-oxospiro[azetidine-3,3′-indoline]-1-carboxylate] | < 100 | > 100000
CC(C)OC(=O)N1CC2(C1)C(=O)N(Cc1nc3c(n1CCCC(F)(F)F)CCC3)c1ccccc12 [Embodiment 102, Isopropyl 2′-oxo-1′-((1-(4,4,4-trifluorobutyl)-1,4,5,6-tetrahydrocyclopenta[d]imidazol-2-yl)methyl)spiro[azetidine-3,3′-indoline]-1-carboxylate] | < 100 | > 100000
CC(C)OC(=O)N1CC2(C1)C(=O)N(Cc1nc3c(n1CC(F)(F)C(C)C)CCCC3)c1ccccc12 [Embodiment 69, Isopropyl 1′-((1-(2,2-difluoro-3-methylbutyl)-4,5,6,7-tetrahydro-1H-benzo[d]imidazol-2-yl)methyl)-2′-oxospiro[azetidine-3,3′-indoline]-1-carboxylate] | < 100 | > 100000
CCOC(=O)N1CC2(C1)C(=O)N(Cc1nc3c(n1CCC(C)C)CCCC3)c1ccccc12 [Embodiment 72, Ethyl 1′-((1-isopentyl-4,5,6,7-tetrahydro-1H-benzo[d]imidazol-2-yl)methyl)-2′-oxospiro[azetidine-3,3′-indoline]-1-carboxylate] | < 100 | > 100000
CS(=O)(=O)N1CC2(C1)C(=O)N(Cc1nc3c(n1CCCC(F)(F)F)CCCC3)c1ccccc12 [Embodiment 97, 1-(Methylsulfonyl)-1′-((1-(4,4,4-trifluorobutyl)-4,5,6,7-tetrahydro-1H-benzo[d]imidazol-2-yl)methyl)spiro[azetidine-3,3′-indoline]-2′-one] | < 100 | > 100000
CC1(C(=O)N2CC3(C2)C(=O)N(Cc2nc4c(n2CCCC(F)(F)F)CCCC4)c2ccccc23)CC1 [Embodiment 91] | < 100 | > 100000
CCOC(=O)N1CC2(C1)C(=O)N(Cc1nc(CC)c(CC)n1CCCCO)c1ccccc12 [Embodiment 101, Ethyl 1′-((4,5-diethyl-1-(4-hydroxybutyl)-1H-imidazol-2-yl)methyl)-2′-oxospiro[azetidine-3,3′-indoline]-1-carboxylate] | – | > 100000

Now from value to molecule, other results behind:

EC50 [1] [nM] | Compound | CC50 at 5 days [2] [nM]
< 100 | CC(C)OC(=O)N1CC2(C1)C(=O)N(Cc1nc3c(n1CCCC(F)(F)F)CCCC3)c1ccc(Br)cc12 [Embodiment 79, Isopropyl 5′-bromo-2′-oxo-1′-((1-(4,4,4-trifluorobutyl)-4,5,6,7-tetrahydro-1H-benzo[d]imidazol-2-yl)methyl)spiro[azetidine-3,3′-indoline]-1-carboxylate] | > 100000
< 100 | CC(C)OC(=O)N1CC2(C1)C(=O)N(Cc1nc3c(n1CCCC(F)F)CCCC3)c1ccccc12 [Embodiment 64, Isopropyl 1′-((1-(4,4-difluorobutyl)-4,5,6,7-tetrahydro-1H-benzo[d]imidazol-2-yl)methyl)-2′-oxospiro[azetidine-3,3′-indoline]-1-carboxylate] | > 100000
< 100 | O=C(C1CC1)N1CC2(C1)C(=O)N(Cc1nc3c(n1CCCC(F)(F)F)CCCC3)c1cnccc12 [Embodiment 89, 1-(Cyclopropanecarbonyl)-1′-((1-(4,4,4-trifluorobutyl)-4,5,6,7-tetrahydro-1H-benzo[d]imidazol-2-yl)methyl)spiro[azetidine-3,3′-pyrrolo[2,3-c]pyridine]-2′(1′H)-one] | > 100000
< 100 | CCOC(=O)N1CC2(C1)C(=O)N(Cc1nc3c(n1CCCC(F)(F)F)CCCC3)c1cnccc12 [Embodiment 87, Ethyl 2′-oxo-1′-((1-(4,4,4-trifluorobutyl)-4,5,6,7-tetrahydro-1H-benzo[d]imidazol-2-yl)methyl)-1′,2′-dihydrospiro[azetidine-3,3′-pyrrolo[2,3-c]pyridine]-1-carboxylate] | > 100000
< 100 | CCOC(=O)N1CC2(C1)C(=O)N(Cc1nc3c(n1CCCC(F)(F)F)CCCC3)c1ccccc12 [Embodiment 75, Ethyl 2′-oxo-1′-((1-(4,4,4-trifluorobutyl)-4,5,6,7-tetrahydro-1H-benzo[d]imidazol-2-yl)methyl)spiro[azetidine-3,3′-indoline]-1-carboxylate] | > 100000
< 100 | CCOC(=O)N1CC2(C1)C(=O)N(Cc1nc3c(n1CCCC#N)CCCC3)c1ccccc12 [Embodiment 74, Ethyl 1′-((1-(3-cyanopropyl)-4,5,6,7-tetrahydro-1H-benzo[d]imidazol-2-yl)methyl)-2′-oxospiro[azetidine-3,3′-indoline]-1-carboxylate] | > 100000
< 100 | CCOC(=O)N1CC2(C1)C(=O)N(Cc1nc3c(n1CCCCF)CCCC3)c1ccccc12 [Embodiment 73] | > 100000
< 100 | CC(C)C(=O)N1CC2(C1)C(=O)N(Cc1nc3c(n1CCCC(F)(F)F)CCC3)c1ccccc12 [Embodiment 105, 1-Isobutyryl-1′-((1-(4,4,4-trifluorobutyl)-1,4,5,6-tetrahydrocyclopenta[d]imidazol-2-yl)methyl)spiro[azetidine-3,3′-indoline]-2′-one] | > 100000
< 100 | CC(C)OC(=O)N1CC2(C1)C(=O)N(Cc1nc3c(n1CCCC(F)(F)F)CCCC3)c1cc(F)ccc12 [Embodiment 82, Isopropyl 6′-fluoro-2′-oxo-1′-((1-(4,4,4-trifluorobutyl)-4,5,6,7-tetrahydro-1H-benzo[d]imidazol-2-yl)methyl)spiro[azetidine-3,3′-indoline]-1-carboxylate] | > 100000
< 100 | CC(C)OC(=O)N1CC2(C1)C(=O)N(Cc1nc3c(n1CCCC(F)(F)F)CCCC3)c1cnccc12 [Embodiment 88, Isopropyl 2′-oxo-1′-((1-(4,4,4-trifluorobutyl)-4,5,6,7-tetrahydro-1H-benzo[d]imidazol-2-yl)methyl)-1′,2′-dihydrospiro[azetidine-3,3′-pyrrolo[2,3-c]pyridine]-1-carboxylate] | > 100000
< 100 | CC(C)OC(=O)N1CC2(C1)C(=O)N(Cc1nc3c(n1CCCC(F)(F)F)CCCC3)c1cc(Cl)ccc12 [Embodiment 81, Isopropyl 6′-chloro-2′-oxo-1′-((1-(4,4,4-trifluorobutyl)-4,5,6,7-tetrahydro-1H-benzo[d]imidazol-2-yl)methyl)spiro[azetidine-3,3′-indoline]-1-carboxylate] | > 100000
< 100 | O=C(C1CC1)N1CC2(C1)C(=O)N(Cc1nc3c(n1CCCC(F)(F)F)CCCC3)c1ccccc12 [Embodiment 93, 1-(Cyclopropanecarbonyl)-1′-((1-(4,4,4-trifluorobutyl)-4,5,6,7-tetrahydro-1H-benzo[d]imidazol-2-yl)methyl)spiro[azetidine-3,3′-indoline]-2′-one] | > 100000
< 100 | CC(=O)N1CC2(C1)C(=O)N(Cc1nc3c(n1CCCC(F)(F)F)CCCC3)c1ccccc12 [Embodiment 92, 1-Acetyl-1′-((1-(4,4,4-trifluorobutyl)-4,5,6,7-tetrahydro-1H-benzo[d]imidazol-2-yl)methyl)spiro[azetidine-3,3′-indoline]-2′-one] | > 100000
< 100 | CCOC(=O)N1CC2(C1)C(=O)N(Cc1nc3c(n1CCCS(C)(=O)=O)CCCC3)c1ccccc12 [Embodiment 76, Ethyl 1′-((1-(3-(methylsulfonyl)propyl)-4,5,6,7-tetrahydro-1H-benzo[d]imidazol-2-yl)methyl)-2′-oxospiro[azetidine-3,3′-indoline]-1-carboxylate] | > 100000
